Activity calls are given as the source filed them. Some results are limits rather than exact numbers.

Assay [1] deals with Luciferin 4-monooxygenase (Photinus pyralis, UniProt P08659). As to the kind of experiment: firefly luciferase enzyme inhibitors, dose response, biochemical, luminescence (AID 1891).
Assay [2] can be described thus: Luminescence Cell-Based Dose Confirmation HTS to Identify Inhibitors of Platelet Dense Granule Release. [Related pubchem assays: 1663 (Primary HTS), 1678 (Summary of Project)]. It counts as functional.
Assay [3] has as its target T1, Short transient receptor potential channel 4 (Mus musculus, UniProt Q9QUQ5).
T1 sequence (Q9QUQ5 whole entry): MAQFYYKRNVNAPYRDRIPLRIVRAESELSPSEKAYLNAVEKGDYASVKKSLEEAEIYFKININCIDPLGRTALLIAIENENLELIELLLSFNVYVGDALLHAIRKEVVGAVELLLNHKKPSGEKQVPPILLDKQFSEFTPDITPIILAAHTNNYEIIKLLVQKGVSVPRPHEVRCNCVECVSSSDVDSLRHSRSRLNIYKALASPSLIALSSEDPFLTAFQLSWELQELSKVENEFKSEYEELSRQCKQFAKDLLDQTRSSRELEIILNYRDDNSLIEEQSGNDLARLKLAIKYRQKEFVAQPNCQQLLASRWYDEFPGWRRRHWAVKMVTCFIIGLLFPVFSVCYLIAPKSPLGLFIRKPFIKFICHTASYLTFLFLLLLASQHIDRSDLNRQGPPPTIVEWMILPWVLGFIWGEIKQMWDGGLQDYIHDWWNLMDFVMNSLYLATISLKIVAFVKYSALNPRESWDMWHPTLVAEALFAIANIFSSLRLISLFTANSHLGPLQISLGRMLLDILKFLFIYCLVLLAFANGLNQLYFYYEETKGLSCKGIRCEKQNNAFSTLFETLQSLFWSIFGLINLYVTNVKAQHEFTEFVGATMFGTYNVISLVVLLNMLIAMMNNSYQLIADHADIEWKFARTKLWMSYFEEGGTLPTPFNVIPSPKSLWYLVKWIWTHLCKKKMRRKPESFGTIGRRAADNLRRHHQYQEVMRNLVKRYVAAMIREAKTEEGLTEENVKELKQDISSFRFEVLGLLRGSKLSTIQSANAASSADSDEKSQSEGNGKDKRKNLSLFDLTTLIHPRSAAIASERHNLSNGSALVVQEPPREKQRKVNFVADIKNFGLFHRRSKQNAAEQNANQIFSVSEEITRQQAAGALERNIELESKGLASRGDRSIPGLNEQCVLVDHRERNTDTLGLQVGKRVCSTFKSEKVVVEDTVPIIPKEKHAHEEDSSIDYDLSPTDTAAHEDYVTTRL
As to the kind of experiment: mouse TRPC4 channel inhibitors, dose response, cell-based, HEK293 TRPC4/mu-opioid, Fluo-4 calcium (AID 434942).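 Further: potency of inhibitors blocking the TRPC4 calcium response.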 It counts as functional.

Assay [4] deals with H9c2. As to the kind of experiment: cells. In kind it is functional, cell-based. The settings on record: Rattus norvegicus, H9c2, Myocardium.
For assay [5], the target named is Cytochrome P450 2C19 (Homo sapiens, UniProt P33261). As to the kind of experiment: Cytochrome panel assay with activity outcomes. Panel member name: p450-cyp2c19 Compounds with AC50 equal or less than 10 uM are considered active. It counts as functional. The settings on record: read-out: AC50.
Sequence of Cytochrome P450 2C19 (P33261 whole entry): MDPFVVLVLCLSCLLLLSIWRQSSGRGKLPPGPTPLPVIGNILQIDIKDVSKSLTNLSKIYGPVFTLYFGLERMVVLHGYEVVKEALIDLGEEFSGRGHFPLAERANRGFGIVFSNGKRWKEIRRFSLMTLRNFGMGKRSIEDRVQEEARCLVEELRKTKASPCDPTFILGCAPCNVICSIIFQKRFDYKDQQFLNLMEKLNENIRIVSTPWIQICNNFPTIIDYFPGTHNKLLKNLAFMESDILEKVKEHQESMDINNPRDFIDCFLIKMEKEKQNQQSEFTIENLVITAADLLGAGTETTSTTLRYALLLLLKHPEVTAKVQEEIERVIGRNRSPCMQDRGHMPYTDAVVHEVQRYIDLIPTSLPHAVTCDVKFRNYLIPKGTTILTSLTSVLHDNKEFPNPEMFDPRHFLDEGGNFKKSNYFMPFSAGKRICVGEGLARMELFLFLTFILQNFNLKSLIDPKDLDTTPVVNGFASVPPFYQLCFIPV
Assay [6] concerns the target Cytochrome P450 3A4 (Homo sapiens, UniProt P08684).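 Further: CYP3A4 tested as one member of a cytochrome P450 panel screen.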
Assay [7] has as its target Cytochrome P450 2C9 (Homo sapiens, UniProt P11712).
The nature of assay [8]: inhibitors of SNCA 5'UTR-driven reporter translation, confirmation, H4 neuroglioma cells, luminescence (AID 1988). In kind it is functional, cell-based.
Assay [9] can be described thus: Luminescence Cell-Based Dose Retest to Confirm Inhibitors of Cancer Stem Cells. [Related pubchem assays (depositor defined):AID2717, AID2721]. In kind it is functional. The settings on record: Homo sapiens.
Assay [10] has as its system Streptococcus sp. 'group A'. As to the kind of experiment: growth inhibition of control SK(-) GAS strain, dose response, counter-screen for streptokinase expression inhibitor project, luminescence, kanamycin, BacTiterGlo, confirmation (AID 1900). It counts as functional, organism-based.
For assay [11], the target named is T2, Streptokinase A (Streptococcus pyogenes serotype M1, UniProt P10520).
T2 sequence (P10520 whole entry): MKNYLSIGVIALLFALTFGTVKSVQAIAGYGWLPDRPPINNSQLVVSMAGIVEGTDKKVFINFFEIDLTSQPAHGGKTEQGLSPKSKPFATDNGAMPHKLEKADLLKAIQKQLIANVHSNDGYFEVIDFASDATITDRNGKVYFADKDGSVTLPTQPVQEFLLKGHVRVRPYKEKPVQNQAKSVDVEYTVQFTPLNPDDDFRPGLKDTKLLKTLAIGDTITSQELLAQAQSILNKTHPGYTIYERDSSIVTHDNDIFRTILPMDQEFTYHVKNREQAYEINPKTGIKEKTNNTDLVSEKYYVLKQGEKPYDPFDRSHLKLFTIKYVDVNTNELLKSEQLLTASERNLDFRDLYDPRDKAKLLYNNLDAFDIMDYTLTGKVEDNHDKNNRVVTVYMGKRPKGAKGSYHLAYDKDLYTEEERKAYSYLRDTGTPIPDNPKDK
As to the kind of experiment: S. pyogenes streptokinase expression inhibitors, potency, dose response, plasminogen activation absorbance, OD405 (AID 1914).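 Further: secreted streptokinase activity via plasminogen activation per viability signal from cell pellet.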 It counts as functional, Streptococcus pyogenes M1 GAS.

Assay [12] has as its system Streptococcus. Description: Group A Streptococcus viability loss, dose response, counter-screen for streptokinase expression inhibitor project, luminescence, BacTiterGlo (AID 1915).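 Further: potency for reduction of bacterial viability or growth.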 It counts as functional, organism-based.
Assay [13] concerns the target T3, Corticotropin-releasing factor receptor 2/Corticotropin-releasing factor-binding protein (Homo sapiens, UniProt P24387+Q13324).
T3 sequence (Q13324 whole entry): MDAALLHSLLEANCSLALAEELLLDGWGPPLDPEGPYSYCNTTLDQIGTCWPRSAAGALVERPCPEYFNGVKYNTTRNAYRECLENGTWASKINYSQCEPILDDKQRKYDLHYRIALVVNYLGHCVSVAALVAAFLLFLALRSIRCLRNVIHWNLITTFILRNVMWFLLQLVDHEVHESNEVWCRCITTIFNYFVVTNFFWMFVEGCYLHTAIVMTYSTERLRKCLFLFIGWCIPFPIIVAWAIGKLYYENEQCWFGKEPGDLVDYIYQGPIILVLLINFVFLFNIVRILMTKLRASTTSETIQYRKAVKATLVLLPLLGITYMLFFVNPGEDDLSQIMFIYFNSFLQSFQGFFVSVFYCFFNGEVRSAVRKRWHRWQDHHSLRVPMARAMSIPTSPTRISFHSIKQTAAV
T3 sequence (P24387 whole entry): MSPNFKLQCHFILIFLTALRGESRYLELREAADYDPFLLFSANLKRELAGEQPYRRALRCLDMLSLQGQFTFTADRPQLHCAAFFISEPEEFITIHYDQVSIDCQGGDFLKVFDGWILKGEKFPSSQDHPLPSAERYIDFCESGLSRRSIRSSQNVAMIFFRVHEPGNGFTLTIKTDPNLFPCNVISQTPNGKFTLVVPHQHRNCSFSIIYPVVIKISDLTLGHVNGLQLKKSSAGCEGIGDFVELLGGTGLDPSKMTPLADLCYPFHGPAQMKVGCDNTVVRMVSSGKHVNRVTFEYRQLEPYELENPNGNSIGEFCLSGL
As to the kind of experiment: Dose Response confirmation of uHTS hits for small molecule antagonists of the CRF-binding protein and CRF-R2 receptor complex. In kind it is functional. Conditions: read-out: IC50_Mean.

For assay [14], the target named is T3, Corticotropin-releasing factor receptor 2/Corticotropin-releasing factor-binding protein. Description: activators of CRF receptor 2 with binding protein – uHTS hits, confirmation (AID 602473). It counts as functional. The settings on record: read-out: EC50_Mean.
Assay [15] in a line: P. falciparum Dd2 growth inhibitors, dose response, SYBR Green, cherry-picked samples (AID 1159567). It counts as functional, cell-based.
In assay [16] the target is T4, RNA-binding protein pos-1 (Caenorhabditis elegans, UniProt G5EF15).
T4 sequence (G5EF15 whole entry): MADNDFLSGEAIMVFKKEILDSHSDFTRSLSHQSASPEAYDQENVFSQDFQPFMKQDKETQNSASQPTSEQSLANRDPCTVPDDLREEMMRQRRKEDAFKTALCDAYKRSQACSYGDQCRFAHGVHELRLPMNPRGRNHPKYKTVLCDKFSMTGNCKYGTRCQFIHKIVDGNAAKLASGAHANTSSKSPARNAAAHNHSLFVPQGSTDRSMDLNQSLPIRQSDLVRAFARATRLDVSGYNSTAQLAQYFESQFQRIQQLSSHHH
Description: inhibitors of POS-1/mex-3 RNA binding, dose response, biochemical, fluorescence polarization (AID 1964).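 Further: purified POS-1 fused to maltose binding protein made in E. coli; potency of compounds blocking POS-1 binding to fluorescent RNA.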

Sequence of Luciferin 4-monooxygenase (P08659 whole entry): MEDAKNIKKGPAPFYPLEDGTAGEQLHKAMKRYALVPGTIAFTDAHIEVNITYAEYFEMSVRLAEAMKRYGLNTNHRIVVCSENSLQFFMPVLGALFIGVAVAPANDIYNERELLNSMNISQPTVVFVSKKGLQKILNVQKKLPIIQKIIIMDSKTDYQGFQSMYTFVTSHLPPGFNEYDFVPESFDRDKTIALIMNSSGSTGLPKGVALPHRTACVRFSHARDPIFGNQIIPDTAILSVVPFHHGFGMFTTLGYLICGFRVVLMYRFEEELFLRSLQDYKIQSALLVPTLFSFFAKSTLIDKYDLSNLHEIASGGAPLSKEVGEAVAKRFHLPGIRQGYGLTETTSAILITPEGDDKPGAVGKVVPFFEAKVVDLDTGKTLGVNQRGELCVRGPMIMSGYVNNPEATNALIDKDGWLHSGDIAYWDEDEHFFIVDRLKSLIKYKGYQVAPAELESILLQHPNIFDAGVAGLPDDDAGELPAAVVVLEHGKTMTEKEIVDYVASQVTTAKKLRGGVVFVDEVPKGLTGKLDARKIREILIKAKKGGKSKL
Sequence of Cytochrome P450 2C9 (P11712 whole entry): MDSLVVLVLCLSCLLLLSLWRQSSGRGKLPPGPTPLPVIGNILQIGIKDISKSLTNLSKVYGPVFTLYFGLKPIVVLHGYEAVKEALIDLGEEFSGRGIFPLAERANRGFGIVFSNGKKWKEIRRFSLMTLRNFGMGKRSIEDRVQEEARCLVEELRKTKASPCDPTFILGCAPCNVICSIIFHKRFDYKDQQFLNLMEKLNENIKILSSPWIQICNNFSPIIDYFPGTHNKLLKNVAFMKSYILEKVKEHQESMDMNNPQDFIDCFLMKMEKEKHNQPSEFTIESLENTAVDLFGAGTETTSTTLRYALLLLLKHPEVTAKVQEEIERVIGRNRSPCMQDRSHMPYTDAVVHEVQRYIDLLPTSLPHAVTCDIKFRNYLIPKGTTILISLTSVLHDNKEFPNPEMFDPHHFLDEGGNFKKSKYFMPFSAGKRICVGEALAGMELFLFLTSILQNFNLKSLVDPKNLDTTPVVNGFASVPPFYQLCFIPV
Sequence of Cytochrome P450 3A4 (P08684 whole entry): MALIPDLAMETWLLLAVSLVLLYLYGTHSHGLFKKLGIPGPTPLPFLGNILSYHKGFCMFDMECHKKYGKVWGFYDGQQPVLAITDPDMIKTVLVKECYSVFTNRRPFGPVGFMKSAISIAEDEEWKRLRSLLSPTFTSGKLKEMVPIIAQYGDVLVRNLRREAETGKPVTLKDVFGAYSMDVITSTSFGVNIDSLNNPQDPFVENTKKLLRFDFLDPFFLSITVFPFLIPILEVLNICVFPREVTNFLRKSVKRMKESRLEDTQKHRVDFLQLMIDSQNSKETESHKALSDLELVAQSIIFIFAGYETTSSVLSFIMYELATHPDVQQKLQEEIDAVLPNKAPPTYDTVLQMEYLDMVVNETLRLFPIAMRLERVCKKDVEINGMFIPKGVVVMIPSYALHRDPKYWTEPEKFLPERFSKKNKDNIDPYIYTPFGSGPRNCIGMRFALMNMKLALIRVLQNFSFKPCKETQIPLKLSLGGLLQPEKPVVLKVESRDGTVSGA

With `Nc1nc(Nc2ccccc2)nc2c1ncn2[C@@H]1O[C@H](CO)[C@@H](O)[C@H]1O`, the EC50 in assay [1] was > 112 µM (not active); in assay [2] it was 0.224 µM (active).
As to `Nc1c2c(nc3c1CCCC3)CCCC2.O=C(O)c1ccnc(O)c1`, in assay [3], the EC50 is 2.99 µM (active).
`CCOc1cc(/C=C/c2nc(O)c3ccccc3n2)ccc1O`: the IC50 in assay [4] is 9.17 µM (active).
In the case of `Cc1ccccc1OCCC(=O)N1CCN(S(=O)(=O)c2ccccc2F)CC1`, the EC50 in assay [1] and in assay [2] was > 112 µM (not active) in each case.
Regarding `O=C(CCc1ccccc1)Nc1nncs1`, the EC50 in assay [1] and in [2] was > 112 µM (not active) throughout. Also, the AC50 was 39.8 µM (inconclusive) in assay [5], 12.6 µM (inconclusive) in [6] and 31.6 µM (inconclusive) in assay [7].
On to `CCOc1ccc(N/C=C/C(=O)c2ccc(OC)cc2)cc1`, for which the EC50 in assay [1] and in assay [2] was > 112 µM (not active) throughout.
Regarding `CCn1nnc(NC(=O)c2cccnc2)n1`, the EC50 in [1] and in assay [2] was > 112 µM (not active) in each case.
Consider `Clc1ccc(/C=C/c2nc3ccccc3[nH]2)cc1`, for which the EC50 in [8] was 9.68 µM (inconclusive); in assay [1], 0.545 µM (active); in assay [2] it was 1.05 µM (active). Further, in assay [9], the concentration at half-maximal activity (AC50) is 2.34 µM (active).
Take `COc1ccc(CNC(=O)CN(C)Cc2ccccc2F)cc1OC`: the EC50 in assay [3] is 8.41 µM (active).
For the compound `CCc1ccccc1NC(=O)NC(C)c1ccc2c(c1)OCO2` (stereo not given), the EC50 in [10] is > 150 µM (not active); in assay [11] it was > 150 µM (not active); in assay [12], > 150 µM (not active); in assay [14], > 53 µM (inactive). Moreover, the IC50 in assay [13] is > 47.1 µM (inactive).
Regarding `CC(=O)Nc1ccc(OC(=O)N(C)c2ccccc2)cc1`, the results for the EC50 in assay [1] and in assay [2] were > 112 µM (not active) and 18.8 µM (active), respectively.
As to `COc1ccc(C)cc1N(C(=O)c1snc(C(N)=O)c1N)C(C(=O)NC1CCCC1)c1ccc(F)cc1` (stereo not given), the EC50 in [3] is 1.33 µM (active).
`Cc1cc(C)c(S(=O)(=O)c2ccccc2C)c(OCC(C)(C)C)n1`: in [3], the EC50 was 2.37 µM (active).
Turning to `Cc1ccc(NC(=O)CN2CCc3ccccc3C2)cc1S(=O)(=O)N1CCOCC1`, the EC50 in assay [3] was 3.76 µM (active).
`O=C(CN1C(=O)c2cccc3cccc1c23)N1CCN(c2cccc(Cl)c2)CC1`: the EC50 in assay [1] and in [2] was > 112 µM (not active) throughout.
As for `CSc1nc(N2CCOCC2)c2c3c(sc2n1)CCCC3`, in assay [3], the EC50 is 4.73 µM (active).
Still for that read-out and setting: the result for `O=C(Cn1c(NCCCO)nc2ccccc21)c1ccc(Br)cc1` reads 2.99 µM (active); that for `CCOC(=O)CSc1nc2c(sc(=S)n2Cc2ccco2)c(=O)n1-c1ccccc1`, 2.37 µM (active); that for `Cc1ccc(NC(=O)CSCC(=O)OCc2cc(=O)oc3cc(O)ccc23)c(C)c1`, 5.96 µM (active).
Turning to `C=CCOc1ccc(C2CC(C)=NN2c2ccccc2)cc1` (stereo not given), the EC50 in assay [3] is 4.22 µM (active).
Turning to `CCCCN(Cc1ccccc1)C(=O)C1CCN(Cc2sccc2C)CC1`, the EC50 in [3] was 2.99 µM (active).
In the case of `CC(C)CC(=O)Nc1cccc(NC(=O)c2ccccc2Cl)c1`, the EC50 is > 112 µM (not active) in assay [1] and 2.39 µM (active) in assay [2].
Turning to `CCCCn1c(SCC(=O)OCC)nc2c(sc(=S)n2-c2ccccc2OC)c1=O`, the EC50 in [3] was 1.68 µM (active).
Turning to `CN(CC(=O)Nc1cccc(F)c1)C(=O)CCCc1nc(O)c2ccccc2n1`, the IC50 in assay [4] is > 79 µM (inactive).
Consider `CO[C@@H]1CN(C)C(=O)c2cc(NC(=O)NC3CCCCC3)ccc2OC[C@@H](C)N(CCc2ccccc2)C[C@H]1C`, for which the AC50 in assay [15] is 5.84 µM (active).
Regarding `CN(C)c1ccc(/C=N/N(CCC(=O)NC(C)(C)C)C2=NS(=O)(=O)c3ccccc32)cc1`, the EC50 in [16] is given as > 300 µM (not active).
As to `COc1cc(CN2CC3(CCN(C(=O)c4cccnc4)CC3)c3c([nH]c4cc(OC)ccc34)[C@@H]2CO)cc(OC)c1`, the AC50 in [15] is 5.84 µM (active).
Consider `COc1ccc(CN2CC3(CN(C(C)=O)C3)c3c([nH]c4cc(OC)ccc34)[C@@H]2CO)cc1`, for which, in assay [15], the AC50 was 9.9 µM (active).
On to `CN1c2ccc(C#Cc3cccnc3)cc2[C@H]2[C@H](CCN2C(=O)C2CCCC2)[C@H]1CO`, for which the AC50 in assay [15] was 4 µM (active).
`N#Cc1ccc(-c2ccc([C@@H]3[C@@H](CO)N4C(=O)CN(C(=O)C5CCC5)C[C@@H]34)cc2)cc1`: the AC50 in [15] is 5.38 µM (active).
For `COc1cccc(C(=O)Nc2ccc3c(c2)C(=O)N(C)C[C@@H](OC)[C@H](C)CN(CCc2ccccc2)[C@H](C)CO3)c1`, the AC50 in assay [15] is 4.35 µM (active).
In the case of `OC[C@H]1CC[C@@H]2O[C@H](CCc3ccc(C#CCc4ccccc4)cc3)[C@@H](n3cc(-c4ccccc4)nn3)C[C@@H]2O1`, the AC50 in assay [15] is 6.17 µM (active).

For the origin of these results see ChEMBL document CHEMBL1201862, “PubChem BioAssay data set” (2004).
